From patent US12448399B2, “Cereblon-based KRAS degrading PROTACs and uses related thereto” (Arvinas Operations, Inc., priority 2023, dated 2025) come the findings set out here.

The test has as its target T1, KRas-G12D (Homo sapiens, UniProt P01116, G12D).
T1 construct: insert the HiBiT tag onto the N-terminus of one or more of the endogenous KRas alleles; host or cells: AsPC-1 HiBiT-KRasG12D knock-in clone (one tagged allele, two untagged KRasG12D alleles)
In words: HiBiT Degradation Assay (G12D), AsPC-1 HiBiT-KRasG12D cells, 24 hr. As to conditions: for Dmax: ASPC1, AsPC-1 cells, maximum degradation observed; for DC50: AsPC-1 cells. The class given is cell-based. The procedure, abridged:
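Degradation was read after 24 hr compound exposure (0.5% DMSO, 37° C) by Nano-Glo HiBiT lytic luminescence in AsPC-1 cells carrying a HiBiT tag on one of three KRasG12D alleles. Signal relative to DMSO gave DC50 and Dmax by 4-parameter fit; alamar blue fluorescence monitored cytotoxicity.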
Background: With HiBiT, luminescence reflects the tagged protein that the partner subunit can reach.

SMILES strings stand for the structures. Where only a bound is given, the exact number is not on record here.

T1 sequence (P01116 1-188 isoform P01116-2 G12D): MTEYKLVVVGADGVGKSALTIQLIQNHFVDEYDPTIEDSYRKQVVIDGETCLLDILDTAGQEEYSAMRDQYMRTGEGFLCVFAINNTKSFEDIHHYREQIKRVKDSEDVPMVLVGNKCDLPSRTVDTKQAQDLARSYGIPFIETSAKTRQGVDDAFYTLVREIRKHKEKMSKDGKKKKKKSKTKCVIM

With `C#Cc1c(F)ccc2cc(O)cc(-c3ncc4c(N5CC6CCC(C5)N6)nc(OC[C@@]56CCCN5[C@H](CN5CCN(CC7CCN(c8ccc9c(c8)CN(C8CCC(=O)NC8=O)C9=O)CC7)CC5)CC6)nc4c3F)c12` (stereo partly drawn) [Compound 100, 3-(5-{4-[(4-{[(3S,7aS)-7a-{[(4-{3,8-diazabicyclo[3.2.1]octan-3-yl}-7-(8-ethynyl-7-fluoro-3-hydroxynaphthalen-1-yl)-8-fluoropyrido[4,3-d]pyrimidin-2-yl)oxy]methyl}-hexahydro-1H-pyrrolizin-3-yl]methyl}piperazin-1-yl)methyl]piperidin-1-yl}-1-oxo-2,3-dihydro-1H-isoindol-2-yl)piperidine-2,6-dione], the maximal degradation (Dmax) (commonly the greatest extent of degradation seen) is above 70% and the DC50 (in general, the concentration at which degradation of the target reaches its halfway point) was below 5.1 µM.

`C#Cc1c(F)ccc2cc(O)cc(-c3ncc4c(N5CC6CCC(C5)N6)nc(OCCN5CCC(CN6CCN(CC7CCN(c8ccc9c(c8F)CN(C8CCC(=O)NC8=O)C9=O)CC7)CC6)CC5)nc4c3F)c12` (stereo not shown) [Compound 101, 3-[5-[4-[[4-[[1-[2-[4-(3,8-diazabicyclo[3.2.1]octan-3-yl)-7-(8-ethynyl-7-fluoro-3-hydroxy-1-naphthyl)-8-fluoro-pyrido[4,3-d]pyrimidin-2-yl]oxyethyl]-4-piperidyl]methyl]piperazin-1-yl]methyl]-1-piperidyl]-4-fluoro-1-oxo-isoindolin-2-yl]piperidine-2,6-dione] came in with a maximal degradation (Dmax) above 70% and a DC50 below 5.1 µM. `C#Cc1c(F)ccc2cc(O)cc(-c3ncc4c(N5CC6CCC(C5)N6)nc(OC[C@@H]5C[C@@H](OC6CCN(c7ccc8c(c7F)CN(C7CCC(=O)NC7=O)C8=O)CC6)CN5C)nc4c3F)c12` (stereo partly drawn) [Compound 103, 3-[5-(4-{[(3R,5S)-5-{[(4-{3,8-diazabicyclo[3.2.1]octan-3-yl}-7-(8-ethynyl-7-fluoro-3-hydroxynaphthalen-1-yl)-8-fluoropyrido[4,3-d]pyrimidin-2-yl)oxy]methyl}-1-methylpyrrolidin-3-yl]oxy}piperidin-1-yl)-4-fluoro-1-oxo-2,3-dihydro-1H-isoindol-2-yl]piperidine-2,6-dione]: the maximal degradation (Dmax) is above 70% and the half-maximal degradation concentration (DC50) was below 5.1 µM.

`C#Cc1c(F)ccc2cc(O)cc(-c3ncc4c(N5CC6CCC(C5)N6)nc(OC[C@@H]5C[C@@H](OC6CCN(c7ccc8c(c7)CN(C7CCC(=O)NC7=O)C8=O)CC6)CN5C)nc4c3F)c12` (stereo partly shown) [Compound 104] registered a Dmax above 70% and a DC50 below 5.1 µM. Compound `C#Cc1c(F)ccc2cc(O)cc(-c3ncc4c(N5CC6CCC(C5)N6)nc(N(C)CCN5CCC(CC6CCN(CC7CCN(c8ccc9c(c8F)CN(C8CCC(=O)NC8=O)C9=O)CC7)CC6)CC5)nc4c3F)c12` (stereo not shown) [Compound 105] had a Dmax of at most 25% and a half-maximal degradation concentration (DC50) below 5.1 µM. The corresponding values for `C#Cc1c(F)ccc2cc(O)cc(-c3ncc4c(N5CC6CCC(C5)N6)nc(OCCN5CCC(OC6CCN(CC7CCN(c8ccc9c(c8F)CN(C8CCC(=O)NC8=O)C9=O)CC7)CC6)CC5)nc4c3F)c12` (stereo not shown) [Compound 106, 3-{5-[4-({4-[(1-{2-[(4-{3,8-diazabicyclo[3.2.1]octan-3-yl}-7-(8-ethynyl-7-fluoro-3-hydroxynaphthalen-1-yl)-8-fluoropyrido[4,3-d]pyrimidin-2-yl)oxy]ethyl}piperidin-4-yl)oxy]piperidin-1-yl}methyl)piperidin-1-yl]-4-fluoro-1-oxo-2,3-dihydro-1H-isoindol-2-yl}piperidine-2,6-dione] are above 70% and below 5.1 µM. Compound `C#Cc1c(F)ccc2cc(O)cc(-c3cnc4c(N5CC6CCC(C5)N6)nc(OCCN5CCC(CC6CCN(CC7CCN(c8ccc9c(c8F)CN(C8CCC(=O)NC8=O)C9=O)CC7)CC6)CC5)nc4c3)c12` (stereo not shown) [Compound 107] displayed a DC50 above 1 µM. In turn, `C#Cc1c(F)ccc2cc(O)cc(-c3ccc4c(N5CC6CCC(C5)N6)nc(OCCN5CCC(CC6CCN(CC7CCN(c8ccc9c(c8F)CN(C8CCC(=O)NC8=O)C9=O)CC7)CC6)CC5)nc4c3)c12` (stereo not shown) [Compound 108] showed a Dmax of at most 25% and a 50% degradation concentration (DC50) below 5.1 µM.

The compound `C#Cc1c(F)ccc2cc(O)cc(-c3ncc4c(N5CC6CCC(C5)N6)nc(OCCN5CCC(CC6CCN(CC7CCN(c8ccc9c(c8Cl)CN(C8CCC(=O)NC8=O)C9=O)CC7)CC6)CC5)nc4c3F)c12` (stereo not shown) [Compound 109, 3-(5-(4-((4-((1-(2-((4-(-3,8-diazabicyclo[3.2.1]octan-3-yl)-7-(8-ethynyl-7-fluoro-3-hydroxynaphthalen-1-yl)-8-fluoropyrido[4,3-d]pyrimidin-2-yl)oxy)ethyl)piperidin-4-yl)methyl)piperidin-1-yl)methyl)piperidin-1-yl)-4-chloro-1-oxoisoindolin-2-yl)piperidine-2,6-dione] displayed a Dmax above 70% and a DC50 below 5.1 µM. For `C#Cc1c(F)ccc2cc(O)cc(-c3ncc4c(N5CC6CCC(C5)N6)nc(OCCN5CCC(CC6CCN(CC7CCN(c8ccc9c(c8)C(=O)N(C8CCC(=O)NC8=O)C9)CC7)CC6)CC5)nc4c3F)c12` (stereo not shown) [Compound 110, 3-{6-[4-({4-[(1-{2-[(4-{3,8-diazabicyclo[3.2.1]octan-3-yl}-7-(8-ethynyl-7-fluoro-3-hydroxynaphthalen-1-yl)-8-fluoropyrido[4,3-d]pyrimidin-2-yl)oxy]ethyl}piperidin-4-yl)methyl]piperidin-1-yl}methyl)piperidin-1-yl]-1-oxo-2,3-dihydro-1H-isoindol-2-yl}piperidine-2,6-dione], in that order: above 70% and below 5.1 µM. Take `C#Cc1c(F)ccc2cc(O)cc(-c3ncc4c(N5CC6CCC(C5)N6)nc(OCCN5CCC(CN6CCN(CC7CCN(c8ccc9c(c8)CN(C8CCC(=O)NC8=O)C9=O)CC7)CC6)CC5)nc4c3F)c12` (stereo not shown) [Compound 111, 3-[5-[4-[[4-[[1-[2-[4-(3,8-diazabicyclo[3.2.1]octan-3-yl)-7-(8-ethynyl-7-fluoro-3-hydroxy-1-naphthyl)-8-fluoro-pyrido[4,3-d]pyrimidin-2-yl]oxyethyl]-4-piperidyl]methyl]piperazin-1-yl]methyl]-1-piperidyl]-1-oxo-isoindolin-2-yl]piperidine-2,6-dione]: the Dmax was above 70% and the DC50 is below 5.1 µM.

`C#Cc1c(F)ccc2cc(O)cc(-c3ncc4c(N5CC6CCC(C5)N6)nc(OC[C@@H]5C[C@@H](OC6CCN(CC7(F)CCN(c8ccc9c(c8F)CN(C8CCC(=O)NC8=O)C9=O)CC7)CC6)CN5C)nc4c3F)c12` (stereo partly drawn) [Compound 112, 3-(5-{4-[(4-{[(3R,5S)-5-{[(4-{3,8-diazabicyclo[3.2.1]octan-3-yl}-7-(8-ethynyl-7-fluoro-3-hydroxynaphthalen-1-yl)-8-fluoropyrido[4,3-d]pyrimidin-2-yl)oxy]methyl}-1-methylpyrrolidin-3-yl]oxy}piperidin-1-yl)methyl]-4-fluoropiperidin-1-yl}-4-fluoro-1-oxo-2,3-dihydro-1H-isoindol-2-yl)piperidine-2,6-dione] came in with a Dmax above 70% and a DC50 below 5.1 µM. Consider `C#Cc1c(F)ccc2cc(O)cc(-c3ncc4c(N5C[C@H]6CC[C@@H](C5)N6)nc(OC[C@@H]5C[C@@H](OC6CCN(CC7CCN(c8ccc9c(c8Cl)CN(C8CCC(=O)NC8=O)C9=O)CC7)CC6)CN5C)nc4c3F)c12` (stereo partly drawn) [Compound 113, 3-(5-(4-((4-(((3R,5S)-5-(((4-((1R,5S)-3,8-diazabicyclo[3.2.1]octan-3-yl)-7-(8-ethynyl-7-fluoro-3-hydroxynaphthalen-1-yl)-8-fluoropyrido[4,3-d]pyrimidin-2-yl)oxy)methyl)-1-methylpyrrolidin-3-yl)oxy)piperidin-1-yl)methyl)piperidin-1-yl)-4-chloro-1-oxoisoindolin-2-yl)piperidine-2,6-dione], for which the maximal degradation (Dmax) is above 70% and the 50% degradation concentration (DC50) is below 5.1 µM. `C#Cc1c(F)ccc2cc(O)cc(-c3ncc4c(N5CC6CCC(C5)N6)nc(OC[C@@H]5CC[C@@H](COC(=O)N6CCN(c7ccc8c(c7)CN(C7CCC(=O)NC7=O)C8=O)CC6)N5C)nc4c3F)c12` (stereo partly drawn) [Compound 114, [(2S,5S)-5-{[(4-{3,8-diazabicyclo[3.2.1]octan-3-yl}-7-(8-ethynyl-7-fluoro-3-hydroxynaphthalen-1-yl)-8-fluoropyrido[4,3-d]pyrimidin-2-yl)oxy]methyl}-1-methylpyrrolidin-2-yl]methyl 4-[2-(2,6-dioxopiperidin-3-yl)-1-oxo-2,3-dihydro-1H-isoindol-5-yl]piperazine-1-carboxylate] showed a half-maximal degradation concentration (DC50) below 5.1 µM.

Compound `C#Cc1c(F)ccc2cc(O)cc(-c3ncc4c(N5CC6CCC(C5)N6)nc(OC[C@@H]5C[C@@H](OC6CCN(CC7CCN(c8cccc9c8CN(C8CCC(=O)NC8=O)C9=O)CC7)CC6)CN5C)nc4c3F)c12` (stereo partly drawn) [Compound 115, 3-(4-{4-[(4-{[(3R,5S)-5-{[(4-{3,8-diazabicyclo[3.2.1]octan-3-yl}-7-(8-ethynyl-7-fluoro-3-hydroxynaphthalen-1-yl)-8-fluoropyrido[4,3-d]pyrimidin-2-yl)oxy]methyl}-1-methylpyrrolidin-3-yl]oxy}piperidin-1-yl)methyl]piperidin-1-yl}-1-oxo-2,3-dihydro-1H-isoindol-2-yl)piperidine-2,6-dione] yielded a Dmax above 70% and a DC50 below 5.1 µM.

Take `C#Cc1c(F)ccc2cc(O)cc(-c3ncc4c(N5CC6CCC(C5)N6)nc(OC[C@@H]5C[C@@H](OC6CCN(CC7CCN(c8ccc9c(c8)CN(C8CCC(=O)NC8=O)C9=O)CC7)CC6)CN5C)nc4c3F)c12` (stereo partly shown) [Compound 116]: the maximal degradation (Dmax) is above 70% and the 50% degradation concentration (DC50) is below 5.1 µM. On to `C#Cc1c(F)ccc2cc(O)cc(-c3ncc4c(N5CC6CCC(C5)N6)nc(OC[C@@H]5CC[C@@H](COC(=O)N6CCN(c7cccc8c7CN(C7CCC(=O)NC7=O)C8=O)CC6)N5C)nc4c3F)c12` (stereo partly drawn) [Compound 117, [(2S,5S)-5-{[(4-{3,8-diazabicyclo[3.2.1]octan-3-yl}-7-(8-ethynyl-7-fluoro-3-hydroxynaphthalen-1-yl)-8-fluoropyrido[4,3-d]pyrimidin-2-yl)oxy]methyl}-1-methylpyrrolidin-2-yl]methyl 4-[2-(2,6-dioxopiperidin-3-yl)-1-oxo-2,3-dihydro-1H-isoindol-4-yl]piperazine-1-carboxylate], for which the half-maximal degradation concentration (DC50) lay within 0.25 to 1 µM.
